Test results taken from US20100292085A1, “Methods and compositions for characterization of HSD1 inhibitors” (priority 2005, published 2010).

Key:
[1] = system: SCD; test: Off-target activity by SCD expression level (microarray); type: cell-based, human; conditions: HepG2/HSD1 cells, 10 μM forskolin, no cortisone, vs forskolin alone; microarray probe
Description: (§1) Total RNA isolated from cultured cell samples was used to make fluorescently labeled cRNA that was hybridized to DNA oligonucleotide microarrays as described previously (Hughes et al., supra., Marton et al., 1998, Nat. Med. 4:1293-301). Briefly, 4 μg of total RNA from each cell culture sample was used to synthesize dsDNA through RT. cRNA was produced by in vitro transcription and labeled postsynthetically with Cy3 or Cy5. Two populations oflabeled cRNA, a control population from vehicle/forskolin treated cells and an experimental population, i.e., cortisone/forskolin plus vehicle or plus HSD1 test compound, were compared with each other by competitive hybridization to microarrays. Two hybridizations were done with each cRNA sample pair using a fluorescent dye reversal strategy.
Each HSD1 inhibitor compound treated sample was compared to a forskolin alone cell sample. The HepG2/HSD1 cells used in these experiments were not contacted with cortisone.

[2] = system: HepG2/HSD1 cells; test: Off-target effects by microarray: number of genes changed, no cortisone; type: cell-based, human; conditions: number of genes changed vs forskolin alone
Description: as §1
The human microarrays used in this study contained 23,653 oligonucleotide probes corresponding to individual genes or expressed sequence tags. […]
(§2) After hybridization, arrays were scanned and fluorescence intensities for each probe were recorded. […] For each gene sequence present on the microarrays, statistical significance of differential gene expression was determined by calculating P values according to the following equation: […]
HSD1 compounds were evaluated using microarray gene expression measurements obtained from HepG2/HSD1 cells under conditions where the cells were not treated with cortisone. […]

[3] = molecular target: T1, HSD1 (Homo sapiens, UniProt P28845); test: Direct measurement of HSD1 activity: 3H-cortisone conversion to cortisol by HPLC; type: cell-based; design: expressed in transfected cells
Description: Oxidoreductase Method: [1,2-^3H]-cortisone (48.7 Ci/mmol) was added to a final concentration of 20 nM to HepG2/HSD1 (2×10^6 cells/well in 6-well plates) and incubated for 1.5, 3, 6 and 22 hrs at 37° C. in culture medium (Dulbecco's Modified Eagle Medium with high glucose containing 2 mM L-glutamine, 10% fetal bovine serum, 100 U/ml penicillin, 100 μg/ml Streptomycin, 10 μM sodium pyruvate, 100 μM non-essential amino acids, 0.003 N NaOH and 0.8 mg/ml Geneticin). The samples (100 μl aliquots) were then extracted with 300 μl ethyl acetate and the upper, organic phases were dried. The dried organic extracts were then resuspended either in 100 μl DMSO for analysis by reverse-phase HPLC (buffer A=10% methanol/90% water; buffer B=90% methanol/10% water using a gradient from 20-45% Buffer B; YMC Combiscreen Pro C18 50 mm×4.6 mm column; flow rate 2.5 mL/min).
HSD1 activity was measured by spiking the incubation medium with ^3H-cortisone. After 21 hrs post compound treatment, conversion of the cortisone to cortisol was assessed by HPLC analysis.

[4] = system: HepG2/HSD1 cells; test: Identification of the off-target response signature by microarray (Table 6); type: cell-based, human
Excerpt: This off-target gene signature was not detected in other active HSD1 inhibitor compounds with in vivo efficacy. Monitoring for the off-target signature identified by 3-(2-chlorophenyl)-4-methyl-5-(4-pentylbicyclo[2.2.2]oct-1-yl)-4H-1,2,4-triazole in the HepG2 cells over-expressing HSD1 can improve characterization and selection of candidate HSD1 compounds prior to in vivo efficacy testing.
as §1, with “strategy. […]” for “strategy.”

[5] = molecular target: T1, HSD1; test: Cortisone signature genes measured by RT-PCR (TAQman) in HepG2/HSD1 cells; type: cell-based; design: expressed in transfected cells
Description: (§3) HepG2 cells stably transfected with human HSD1, as previously described in Example 1, were plated in either 96 well or 24 well tissue culture plates. Cells were plated at a density of 6.25×10^5 cells/well on 24 well plates in 500 μl DMEM culture medium prepared as previously described. For the 96 well plates, the cells were plated at a density of 1×10^5 cells per well in 100 μl culture medium. The cells were incubated at 37° C. in a 5% CO2 atmosphere. After 24 hours, the culture medium was removed and the cells were pre-incubated with, either 250 μl (24 well plate) or 50 μl (96 well plate), Culture Medium containing 2× concentration of HSD1 inhibitor (14 μM) or vehicle for 20 min at 37° C. in a 5% CO2 atmosphere. Culture Medium (either 250 μl or 50 μl) containing 1000 nM cortisone (500 nM final concentration) or vehicle, and 20 μM forskolin (10 μM final concentration), was next added to the cells. The cells were further incubated for 20 hrs at 37° C. in a 5% CO2 atmosphere. All conditions were run in duplicates.
HepG2/HSD1 cells were lysed using Trizol reagent (Life Technologies, Grand Island, N.Y.). Total RNA was isolated from HepG2/HSD1 lysate using the RNeasy 96-Kit (Qiagen Inc., Valencia, Calif.) following the manufacturer's instructions, including the optional on-column removal of contaminating DNA step by RNase-free DNase I treatment. The RNA was reverse-transcribed to single stranded cDNA using random hexamer primers with TAQman reverse transcription reagents (Applied Biosystems, Foster City, Calif.).
The sequences of the TAQman primers and probes used to detect the target cDNAs were synthesized by Qiagen Operon (Alameda, Calif.) and are shown in Tables 8 and 9.
Oligonucleotide probes were labeled with the 6-FAM fluorophore at the 5′ end (FAM) and a non-fluorescent quencher at the 3′ end (NFQ). Real-time PCR was performed on human HepG2/HSD1 cDNA using the TaqMan Universal PCR Master Mix (Applied Biosystems, Foster City, Calif.) and appropriate primer/probe sets on an ABI Prism 7900HT Sequence Detection System (Applied Biosystems, Foster City, Calif.) in the 384-well format according to manufacturer's instructions. The levels of mRNA were normalized to the amount of 18S RNA detected in each sample using the Eukaryotic 18S rRNA Endogenous Control from Applied Biosystems. Levels of the target mRNAs in treated cells were calculated relative to the untreated cells.

[6] = molecular target: T1, HSD1; test: In vivo efficacy of HSD1 inhibitor; design: host or cells: in vivo
[7] = molecular target: T1, HSD1; test: HSD1 signature reversal activity: microarray of cortisone signature genes in HepG2/HSD1 cells; type: cell-based; design: expressed in transfected cells; conditions: slope of linear regression vs cortisone treatment alone (1.0 = no inhibition), Table 2 genes, 500 nM cortisone, 10 μM forskolin, inhibitor added as 2× concentration (14 μM), 20 hrs
Description: HepG2 human hepatoma cells stably transfected with human 11βHSD1 (HepG2/HSD1 cells) were plated at 2×10^6 cells per well on 6-well plates in 1 ml Culture Medium (DMEM with 2 mM L-Glutamine, 10% charcoal-dextran-treated FBS, 100 U/ml Penicillin, 100 μg/ml streptomycin, 10 μM sodium pyruvate, 100 μM non-essential amino acids, 0.003 N NaOH) at 37° C./5% CO2. After 24 hours, the Culture Medium was replaced with 500 μl Culture Medium containing 1000 nM cortisone (500 nM final concentration) and 20 μM forskolin (10 μM final concentration). The cells were incubated for 20 hrs at 37° C./5% CO2. Samples were run in triplicates. […]
as §2
Gene expression changes in the cortisone signature genes were analyzed to further assess the degree to which HSD1-agents cause a reversal in the magnitude of the cortisone signature due to the degree of inhibition of HSD1 activity. Gene expression levels of the cortisone signature genes were measured in cortisone treated HepG2/HSD1 cells and HepG2/HSD1 cells treated with an HSD1-agent affecting HSD1 activity. […]

[8] = system: off-target signature genes (SCD, DHCR7, ACLY, FBXO9, HEY1); test: Off-target signature genes measured by RT-PCR (TAQman) in HepG2/HSD1 cells; type: cell-based, human
Description: as §3, with “All conditions were run in duplicates.” left out
Oligonucleotide probes were labeled with the 6-FAM fluorophore at the 5′ end (FAM) and a non-fluorescent quencher at the 3′ end (NFQ). […] The levels of mRNA were normalized to the amount of 18S RNA detected in each sample using the Eukaryotic 18S rRNA Endogenous Control from Applied Biosystems. Levels of the target mRNAs in treated cells were calculated relative to the untreated cells.

[9] = RT-PCR, 500 nM cortisone + 10 μM forskolin, 20 hrs, inhibitor added as 2× concentration (14 μM)

T1 sequence (P28845 whole entry): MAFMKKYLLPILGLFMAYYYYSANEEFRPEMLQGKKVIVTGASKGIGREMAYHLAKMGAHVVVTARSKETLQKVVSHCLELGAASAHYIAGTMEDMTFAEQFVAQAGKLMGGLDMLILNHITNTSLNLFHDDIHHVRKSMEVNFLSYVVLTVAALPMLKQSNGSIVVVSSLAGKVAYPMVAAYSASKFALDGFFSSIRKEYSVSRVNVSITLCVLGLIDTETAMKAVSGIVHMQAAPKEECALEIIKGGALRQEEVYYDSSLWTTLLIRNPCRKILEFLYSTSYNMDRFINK

SMILES: CCCCCC12CCC(c3nnc(-c4ccccc4Cl)n3C)(CC1)CC2 [3-(2-chlorophenyl)-4-methyl-5-(4-pentylbicyclo[2.2.2]oct-1-yl)-4H-1,2,4-triazole]
- Log ratio of SCD gene expression [1]: 0.45
- off-target activity (in words, from Table 5 microarray data) [2]: high levels of off-target activity
- Percent Conversion to Cortisol ([3]; 3H-cortisone spiked medium, 21 hrs post compound treatment, cortisone/forskolin, HPLC): 2%
- Percent Conversion to Cortisol normalized to cortisone/forskolin value ([3]; value in square brackets, cortisone/forskolin alone = 1.0): 0.05
- off-target signature (Table 6) in HepG2 cell line over-expressing HSD1 (in words) ([4]; independent of cortisone treatment): exhibited off-target activity
- off-target response signature, number of gene markers ([4]; p-value<0.01, no fold change cut-off, common to three replicate studies, compound + forskolin): 330
- G6PC Gene Transcript (Fold Change Relative to Vehicle Alone) [5, 9]: 1.0 Fold Change
- Homer-2 Gene Transcript (Fold Change Relative to Vehicle Alone) [5, 9]: 1.5 Fold Change
- LIPG Gene Transcript (Fold Change Relative to Vehicle Alone) [5, 9]: 2.7 Fold Change
- PGC Gene Transcript (Fold Change Relative to Vehicle Alone) [5, 9]: 0.7 Fold Change
- TAT Gene Transcript (Fold Change Relative to Vehicle Alone) [5, 9]: 1.2 Fold Change
- Average of five genes (cortisone signature, Fold Change Relative to Vehicle Alone) ([5]; average of Homer-2, G6PC, PGC, TAT, LIPG): 1.4 Fold Change
- efficacy in vivo (in words) [6]: failed to achieve significant efficacy in vivo
- HSD1 Signature Reversal Activity Values [7]: 0.03
- Average of five genes (off-target signature, Fold Change Relative to Vehicle Alone) [8]: 1.7 Fold Change
